This is an account of results in ChEMBL document CHEMBL5113453, “Design, synthesis, and biological evaluation of a new series of pyrazole derivatives: Discovery of potent and selective JNK3 kinase inhibitors” (Bioorg Med Chem, 2022).

Assay [1] concerns the target T1, Mitogen-activated protein kinase 10 (Homo sapiens, UniProt P53779). The assay is described as follows: Inhibition of JNK3 (unknown origin).
Assay [2] deals with T1, Mitogen-activated protein kinase 10. The assay is described as follows: Inhibition of JNK3 (unknown origin) at 1 uM relative to control.
The species entered for another assay is Homo sapiens. Nature of the assay: RatioIC50 for inhibition of […] (unknown origin).
The next assay has as its system HepG2. The assay is described as follows: Antiproliferative activity against human HepG2 cells measured by MTT assay. It is filed as functional, cell-based. In general terms: Tetrazolium dyes change colour on reduction, which living cells bring about.
Another assay has as its target Cytochrome P450 3A4 (Homo sapiens, UniProt P08684). Nature of the assay: Inhibition of CYP3A4 (unknown origin) using BOMCC as a substrate. Format: ADME.
The next assay has as its system WI-38. The assay is described as follows: Antiproliferative activity against human WI-38 cells measured by MTT assay. It is filed as functional, cell-based.
Assay [3] concerns the target T2, Platelet-derived growth factor receptor alpha (Homo sapiens, UniProt P16234). Nature of the assay: Inhibition of PDGFRalpha (unknown origin).
For assay [4], the target named is T1, Mitogen-activated protein kinase 10. The assay is described as follows: Inhibition of JNK3 in human HEK293 cells transfected with JNK3-NanoLuc fusion vector measured after 1 hr by NanoBRET assay. Format: cell-based.
The target in the next assay is Cytochrome P450 2D6 (Homo sapiens, UniProt P10635). Nature of the assay: Inhibition of CYP2D6 (unknown origin) using EOMCC as a substrate. Format: ADME.
Cytochrome P450 2D6, sequence (P10635 whole entry): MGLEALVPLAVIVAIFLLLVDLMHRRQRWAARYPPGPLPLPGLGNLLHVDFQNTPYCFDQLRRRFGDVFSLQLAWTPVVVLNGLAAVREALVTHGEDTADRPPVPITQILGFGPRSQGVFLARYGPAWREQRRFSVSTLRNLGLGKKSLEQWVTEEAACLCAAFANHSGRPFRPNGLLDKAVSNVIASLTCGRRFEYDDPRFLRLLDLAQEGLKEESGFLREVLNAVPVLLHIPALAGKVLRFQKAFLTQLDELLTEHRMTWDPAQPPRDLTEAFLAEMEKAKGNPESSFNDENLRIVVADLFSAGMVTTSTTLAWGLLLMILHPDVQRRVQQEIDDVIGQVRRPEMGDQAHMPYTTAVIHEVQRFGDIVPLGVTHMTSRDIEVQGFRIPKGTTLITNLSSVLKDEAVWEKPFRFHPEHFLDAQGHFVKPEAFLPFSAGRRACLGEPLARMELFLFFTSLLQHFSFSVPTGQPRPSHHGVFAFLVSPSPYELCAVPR
Assay [5] deals with T2, Platelet-derived growth factor receptor alpha. The assay is described as follows: Inhibition of PDGFRalpha (unknown origin) at 1 uM relative to control.
The target in assay [6] is Voltage-gated inwardly rectifying potassium channel KCNH2 (Homo sapiens, UniProt Q12809). The assay is described as follows: Inhibition of hERG measured by fluorescence polarization assay. Background: The hERG channel carries a current that helps repolarise heart muscle cells.
Voltage-gated inwardly rectifying potassium channel KCNH2, sequence (Q12809 whole entry): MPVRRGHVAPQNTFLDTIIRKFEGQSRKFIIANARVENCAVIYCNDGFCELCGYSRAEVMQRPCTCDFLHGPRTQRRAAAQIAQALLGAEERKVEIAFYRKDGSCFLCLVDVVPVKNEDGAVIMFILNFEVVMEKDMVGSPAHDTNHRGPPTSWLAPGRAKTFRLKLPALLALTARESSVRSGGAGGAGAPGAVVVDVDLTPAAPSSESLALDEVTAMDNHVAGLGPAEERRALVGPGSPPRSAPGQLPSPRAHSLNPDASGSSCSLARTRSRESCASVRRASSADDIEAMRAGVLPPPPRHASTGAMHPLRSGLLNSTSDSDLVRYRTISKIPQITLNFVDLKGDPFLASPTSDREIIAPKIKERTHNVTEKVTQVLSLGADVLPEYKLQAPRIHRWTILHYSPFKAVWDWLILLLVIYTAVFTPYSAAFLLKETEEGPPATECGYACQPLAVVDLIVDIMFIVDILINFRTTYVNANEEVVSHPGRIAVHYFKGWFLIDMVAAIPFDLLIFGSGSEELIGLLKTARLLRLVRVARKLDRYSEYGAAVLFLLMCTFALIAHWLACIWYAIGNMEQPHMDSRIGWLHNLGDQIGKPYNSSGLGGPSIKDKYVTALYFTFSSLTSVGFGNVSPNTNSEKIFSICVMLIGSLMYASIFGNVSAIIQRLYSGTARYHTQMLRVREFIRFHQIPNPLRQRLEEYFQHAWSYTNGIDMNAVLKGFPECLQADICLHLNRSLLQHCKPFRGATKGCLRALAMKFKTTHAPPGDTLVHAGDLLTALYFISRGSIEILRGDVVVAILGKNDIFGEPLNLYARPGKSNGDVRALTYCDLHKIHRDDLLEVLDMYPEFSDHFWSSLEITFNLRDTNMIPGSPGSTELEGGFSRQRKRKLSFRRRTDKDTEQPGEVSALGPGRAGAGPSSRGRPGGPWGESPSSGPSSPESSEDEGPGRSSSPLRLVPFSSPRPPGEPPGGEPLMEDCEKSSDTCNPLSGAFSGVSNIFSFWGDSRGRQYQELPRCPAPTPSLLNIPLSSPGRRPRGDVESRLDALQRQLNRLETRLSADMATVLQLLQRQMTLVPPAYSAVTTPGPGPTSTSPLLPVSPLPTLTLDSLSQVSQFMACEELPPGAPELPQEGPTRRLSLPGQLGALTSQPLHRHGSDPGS
The subject of assay [7] is Serine/threonine-protein kinase B-raf (Homo sapiens), P15056 [V600E]. Nature of the assay: Inhibition of B-RAF V600E mutant (unknown origin) at 1 uM relative to control.
For another assay, the system named is IGROV-1. Nature of the assay: Antiproliferative activity against human IGROV-1 cells measured after 48 hrs by SRB assay. Format: functional, cell-based. As to conditions: IGROV-1, time 48 hrs. A general note: The SRB assay estimates cell density from bound dye.
Another assay relates to NCI-H23. The assay is described as follows: Antiproliferative activity against human NCI-H23 cells measured after 48 hrs by SRB assay. Format: functional, cell-based. As to conditions: NCI-H23, time 48 hrs.
The next assay concerns TK-10. The assay is described as follows: Antiproliferative activity against human TK-10 cells measured after 48 hrs by SRB assay. Format: functional, cell-based. The settings on record: TK-10, time 48 hrs.
A further assay deals with HOP-92. The assay is described as follows: Antiproliferative activity against human HOP-92 cells measured after 48 hrs by SRB assay. Format: functional, cell-based. As to conditions: HOP-92, time 48 hrs.
The test system of the next assay is NCI/ADR-RES. Nature of the assay: Antiproliferative activity against human NCI-ADR-RES cells measured after 48 hrs by SRB assay. It is filed as functional, cell-based. The settings on record: time 48 hrs.
For a further assay, the system named is HL-60(TB). Nature of the assay: Antiproliferative activity against human HL-60(TB) cells measured after 48 hrs by SRB assay. Format: functional, cell-based. As to conditions: HL-60, time 48 hrs.
A further assay concerns ACHN. The assay is described as follows: Antiproliferative activity against human ACHN cells measured after 48 hrs by SRB assay. It is filed as functional, cell-based. The settings on record: time 48 hrs.
Another assay relates to MCF7. The assay is described as follows: Antiproliferative activity against human MCF7 cells measured after 48 hrs by SRB assay. Format: functional, cell-based. As to conditions: MCF7, time 48 hrs.
In the next assay the test system is MOLT-4. Nature of the assay: Antiproliferative activity against human MOLT-4 cells measured after 48 hrs by SRB assay. Format: functional, cell-based. The settings on record: MOLT-4, time 48 hrs.
The next assay concerns UACC-257. The assay is described as follows: Antiproliferative activity against human UACC-257 cells measured after 48 hrs by SRB assay. The settings on record: UACC-257, time 48 hrs. It is filed as functional, cell-based.

pIC50: −log10 of the molar value.

T1 sequence (P53779 whole entry): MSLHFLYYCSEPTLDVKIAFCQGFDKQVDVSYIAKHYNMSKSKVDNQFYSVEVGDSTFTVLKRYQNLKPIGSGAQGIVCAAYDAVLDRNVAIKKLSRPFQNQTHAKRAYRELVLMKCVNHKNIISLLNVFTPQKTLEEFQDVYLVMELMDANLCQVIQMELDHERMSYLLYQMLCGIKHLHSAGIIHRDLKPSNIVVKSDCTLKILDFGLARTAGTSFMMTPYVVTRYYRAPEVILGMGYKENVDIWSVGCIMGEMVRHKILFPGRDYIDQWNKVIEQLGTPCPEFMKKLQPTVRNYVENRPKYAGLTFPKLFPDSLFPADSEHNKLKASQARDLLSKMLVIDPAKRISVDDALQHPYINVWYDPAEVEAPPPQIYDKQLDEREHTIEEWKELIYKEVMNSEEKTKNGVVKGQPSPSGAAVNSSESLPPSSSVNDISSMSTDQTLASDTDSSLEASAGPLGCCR
T2 sequence (P16234 whole entry, the tested form may be a part): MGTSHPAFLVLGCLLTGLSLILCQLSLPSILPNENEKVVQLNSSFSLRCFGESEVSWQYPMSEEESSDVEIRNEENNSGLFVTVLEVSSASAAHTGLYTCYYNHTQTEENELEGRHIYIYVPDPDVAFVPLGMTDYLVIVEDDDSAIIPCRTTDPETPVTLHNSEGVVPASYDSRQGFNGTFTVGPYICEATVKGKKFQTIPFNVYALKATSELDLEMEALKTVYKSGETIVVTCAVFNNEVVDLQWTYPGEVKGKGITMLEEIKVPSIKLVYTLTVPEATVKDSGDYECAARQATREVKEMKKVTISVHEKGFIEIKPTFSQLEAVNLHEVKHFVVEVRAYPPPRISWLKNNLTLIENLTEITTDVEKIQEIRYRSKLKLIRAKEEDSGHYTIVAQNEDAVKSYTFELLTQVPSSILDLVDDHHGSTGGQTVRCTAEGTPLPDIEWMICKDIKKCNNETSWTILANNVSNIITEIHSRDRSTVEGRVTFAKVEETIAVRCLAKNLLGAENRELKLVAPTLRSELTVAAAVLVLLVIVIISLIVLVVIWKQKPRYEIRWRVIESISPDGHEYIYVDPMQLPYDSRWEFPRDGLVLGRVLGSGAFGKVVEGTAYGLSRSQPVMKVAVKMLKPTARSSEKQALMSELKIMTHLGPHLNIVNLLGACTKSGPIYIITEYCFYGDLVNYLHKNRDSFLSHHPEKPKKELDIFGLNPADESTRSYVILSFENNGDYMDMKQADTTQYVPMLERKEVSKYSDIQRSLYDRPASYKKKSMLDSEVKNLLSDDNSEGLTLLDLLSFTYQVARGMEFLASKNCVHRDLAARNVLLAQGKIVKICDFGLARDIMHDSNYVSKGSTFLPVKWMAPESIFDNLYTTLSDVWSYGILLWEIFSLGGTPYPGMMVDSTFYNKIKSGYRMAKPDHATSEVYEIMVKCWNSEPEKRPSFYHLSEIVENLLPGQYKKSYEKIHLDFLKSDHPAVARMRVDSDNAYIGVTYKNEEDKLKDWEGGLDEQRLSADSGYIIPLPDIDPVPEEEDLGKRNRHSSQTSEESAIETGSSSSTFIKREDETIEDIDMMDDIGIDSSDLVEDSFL
Serine/threonine-protein kinase B-raf (Homo sapiens), P15056 [V600E], sequence (P15056 whole entry V600E): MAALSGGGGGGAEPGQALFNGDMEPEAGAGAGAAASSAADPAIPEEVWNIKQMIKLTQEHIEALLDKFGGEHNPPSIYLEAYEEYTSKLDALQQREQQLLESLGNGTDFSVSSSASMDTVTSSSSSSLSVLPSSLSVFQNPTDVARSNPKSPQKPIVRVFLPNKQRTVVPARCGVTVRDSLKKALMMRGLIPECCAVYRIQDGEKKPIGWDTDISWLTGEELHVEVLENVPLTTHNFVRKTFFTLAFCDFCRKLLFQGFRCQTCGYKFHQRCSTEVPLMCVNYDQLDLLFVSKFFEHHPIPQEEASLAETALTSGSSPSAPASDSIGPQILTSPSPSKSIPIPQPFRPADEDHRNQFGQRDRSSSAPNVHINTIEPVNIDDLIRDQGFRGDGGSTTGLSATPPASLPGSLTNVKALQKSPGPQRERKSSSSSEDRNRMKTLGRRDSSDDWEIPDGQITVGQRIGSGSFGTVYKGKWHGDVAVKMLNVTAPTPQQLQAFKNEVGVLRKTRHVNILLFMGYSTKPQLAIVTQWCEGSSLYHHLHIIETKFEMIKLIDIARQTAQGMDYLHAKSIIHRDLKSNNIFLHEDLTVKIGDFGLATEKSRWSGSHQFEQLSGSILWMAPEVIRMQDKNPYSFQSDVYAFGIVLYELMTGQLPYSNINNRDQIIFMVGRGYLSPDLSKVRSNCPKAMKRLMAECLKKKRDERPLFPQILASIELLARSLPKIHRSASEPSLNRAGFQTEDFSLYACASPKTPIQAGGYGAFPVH
Cytochrome P450 3A4, sequence (P08684 whole entry): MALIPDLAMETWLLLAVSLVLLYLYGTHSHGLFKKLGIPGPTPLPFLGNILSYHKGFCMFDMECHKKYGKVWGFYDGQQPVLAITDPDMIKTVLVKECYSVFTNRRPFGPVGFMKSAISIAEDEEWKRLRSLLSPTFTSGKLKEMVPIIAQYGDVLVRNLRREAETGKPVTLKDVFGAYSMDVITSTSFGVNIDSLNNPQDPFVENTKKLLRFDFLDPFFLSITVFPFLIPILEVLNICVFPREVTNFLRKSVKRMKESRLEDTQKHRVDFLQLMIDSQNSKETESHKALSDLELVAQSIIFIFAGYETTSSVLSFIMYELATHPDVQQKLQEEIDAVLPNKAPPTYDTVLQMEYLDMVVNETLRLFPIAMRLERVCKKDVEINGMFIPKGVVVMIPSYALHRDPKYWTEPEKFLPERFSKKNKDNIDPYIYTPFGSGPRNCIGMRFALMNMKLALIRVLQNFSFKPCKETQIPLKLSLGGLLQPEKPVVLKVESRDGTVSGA

One may read the pIC50 as the negative decadic logarithm of the IC50, by convention in mol/L. As usually defined, the inhibition is the percentage by which the read-out fell short of the control. Low readings indicate a weak effect, high ones a strong effect. On to `COc1cccc(-c2nn(-c3ccccc3)cc2-c2ccnc(N3CCN(C(=O)Nc4cc(C(F)(F)F)cc(C(F)(F)F)c4)CC3)c2)c1`, for which, in assay [1], the negative logarithm of the IC50 (pIC50) is less than 6.00. The inhibition in assay [2] was found to be 9%.

In turn, `O=C(NCCCNc1cc(-c2cn(-c3ccccc3)nc2-c2cccc(O)c2)ccn1)Nc1cc(C(F)(F)F)cc(C(F)(F)F)c1` showed a pIC50 in [1] of less than 6.00. The same compound returned an inhibition in assay [2] of 0%.

As to `O=C(NCCNc1cc(-c2cn(-c3ccccc3)nc2-c2cccc(O)c2)ccn1)Nc1cccc(C(F)(F)F)c1`, the Ratio IC50 in the assay listed under Homo sapiens amounted to 10.1. For the same compound, the pIC50 with HepG2 was 5.81; on Cytochrome P450 3A4, 4.69; in [1] it was 7.00; with WI-38, 4.73; in assay [3] it was 6.00; in assay [4], 5.41. Besides, the pIC50 on Cytochrome P450 2D6 is 5.20; in assay [6], less than 4.30. The values for the inhibition in [5], in [2] and in [7] were 50%, 84% and 9%, respectively.

Take `O=C(NCCNc1cc(-c2cn(-c3ccccc3)nc2-c2cccc(O)c2)ccn1)Nc1ccc(F)cc1`: in assay [1], the pIC50 is 6.72. In addition, the inhibition in assay [2] is 83%.

Take `O=C(NCCCNc1cc(-c2cn(-c3ccccc3)nc2-c2cccc(O)c2)ccn1)Nc1ccc(Cl)c(Cl)c1`: in assay [1], the pIC50 was less than 6.00. Moreover, the inhibition in assay [2] amounted to 13%.

`O=C(Nc1ccccc1)N1CCN(c2cc(-c3cn(-c4ccccc4)nc3-c3cccc(O)c3)ccn2)CC1` had a pIC50 in assay [1] of less than 6.00. The compound further yielded an inhibition in assay [2] of 6%.

Regarding `O=C(NCCNc1cc(-c2cn(-c3ccccc3)nc2-c2cccc(O)c2)ccn1)Nc1ccc(Cl)c(Cl)c1`, the pIC50 with HepG2 was 5.55; in assay [1], 6.28; with WI-38 it was 4.76. In addition, in assay [2], the inhibition is 69%.

In assay [1], `COc1cccc(-c2nn(-c3ccccc3)cc2-c2ccnc(N3CCN(C(=O)Nc4ccc(Cl)c(Cl)c4)CC3)c2)c1` had a pIC50 of less than 6.00. In assay [2], this compound yielded an inhibition of 4%.

Take `O=C(NCCNc1cc(-c2cn(-c3ccccc3)nc2-c2cccc(O)c2)ccn1)Nc1cc(C(F)(F)F)cc(C(F)(F)F)c1`: the pIC50 in assay [1] is less than 6.00. Moreover, the inhibition in assay [2] is 19%.

As to `COc1cccc(-c2nn(-c3ccccc3)cc2-c2ccnc(N3CCN(C(=O)Nc4cccc(C(F)(F)F)c4)CC3)c2)c1`, the pIC50 in [1] is less than 6.00. The compound also had an inhibition in [2] of 10%.

`O=C(Nc1ccc(Cl)c(Cl)c1)N1CCN(c2cc(-c3cn(-c4ccccc4)nc3-c3cccc(O)c3)ccn2)CC1`: the pIC50 in assay [1] was less than 6.00. The inhibition in assay [2] is 3%.

Compound `O=C(NCCCNc1cc(-c2cn(-c3ccccc3)nc2-c2cccc(O)c2)ccn1)Nc1ccc(Cl)c(C(F)(F)F)c1` showed a pIC50 in assay [1] of 6.21. The inhibition in [2] was found to be 63%.

As a reminder, the TGI is the concentration giving total growth inhibition. A high value points to less potent growth arrest. For the compound `CNC(=O)c1cc(Oc2ccc(NC(=O)Nc3ccc(Cl)c(C(F)(F)F)c3)cc2)ccn1` [SORAFENIB], the TGI came to 10 µM in the assay with IGROV-1; 5.01 µM with NCI-H23; 10 µM in the assay with TK-10; 5.01 µM with HOP-92; 7.94 µM with NCI/ADR-RES; 100 µM with HL-60(TB). Further, the TGI was found to be 10 µM in the assay with ACHN, 7.94 µM with MCF7, 100 µM with MOLT-4 and 5.01 µM in the assay on UACC-257. The pIC50 with WI-38 is 4.83.

In [1], `COc1cccc(-c2nn(-c3ccccc3)cc2-c2ccnc(N3CCN(C(=O)Nc4ccc(Cl)c(C(F)(F)F)c4)CC3)c2)c1` had a pIC50 of less than 6.00. Further, the inhibition in assay [2] came out at 7%.

Take `COc1cccc(-c2nn(-c3ccccc3)cc2-c2ccnc(N3CCN(C(=O)Nc4ccccc4)CC3)c2)c1`: the pIC50 in assay [1] was less than 6.00. In assay [2], this compound had an inhibition of 8%.

`O=C(Nc1cccc(C(F)(F)F)c1)N1CCN(c2cc(-c3cn(-c4ccccc4)nc3-c3cccc(O)c3)ccn2)CC1`: the pIC50 in assay [1] was less than 6.00. The compound further registered an inhibition in [2] of 17%.

Regarding `O=C(Nc1ccc(F)cc1)N1CCN(c2cc(-c3cn(-c4ccccc4)nc3-c3cccc(O)c3)ccn2)CC1`, the pIC50 in assay [1] was less than 6.00. Moreover, the inhibition in assay [2] worked out at 8%.

As for `COc1cccc(-c2nn(-c3ccccc3)cc2-c2ccnc(N3CCN(C(=O)Nc4ccc(F)cc4)CC3)c2)c1`, the pIC50 in assay [1] is less than 6.00. This compound displayed an inhibition in assay [2] of 0%.

For the compound `O=C(NCCNc1cc(-c2cn(-c3ccccc3)nc2-c2cccc(O)c2)ccn1)Nc1ccc(Cl)c(C(F)(F)F)c1`, the pIC50 in [1] is less than 6.00. The same compound gave an inhibition in [2] of 38%.

`O=C(Nc1cc(C(F)(F)F)cc(C(F)(F)F)c1)N1CCN(c2cc(-c3cn(-c4ccccc4)nc3-c3cccc(O)c3)ccn2)CC1` showed a pIC50 in assay [1] of less than 6.00. Also, the inhibition in assay [2] was 1%.
